Results reported in the supplement of paper PMC10331698.
± gives the standard deviation of the averaged measurements.

How the values were obtained:
Assay in all cases: level (log10 ratio to DMSO vehicle control); higher = higher biomarker level / cell amount than vehicle control
[1] = compound: CN(C(=O)C(F)(F)C(F)(F)C(F)(F)F)[Si](C)(C)C [N-Methyl-N-trimethylsilylheptafluorobutyramide] (in DMSO)
Procedure: (§1)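 BioMAP Diversity Plus panel of 12 human primary cell co-culture systems (3C, 4H, LPS, SAg, BT, BF4T, BE3C, CASM3C, HDF3CGF, KF3CT, MyoF, Mphg). Compounds were added 1 h before stimulation and left for 24 h (MyoF 48 h; BT 72 h for soluble read-outs or 6 d for IgG). Biomarkers were read by ELISA, cytotoxicity by SRB, PBMC viability and proliferation by Alamar Blue. Each well value was divided by the mean of 8 DMSO control wells on the same plate and log10 transformed; duplicate blinded samples were tested at 4 concentrations.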

[2] = compound: CO[Si](C)(CCC(F)(F)C(F)(F)C(F)(F)C(F)(F)C(F)(F)C(F)(F)F)OC [Dimethoxymethyl((perfluorohexyl)ethyl)silane] (in DMSO)
Procedure: as §1

[3] = compound: O=C(O)C(F)(F)C(F)(F)C(F)(F)C(F)(F)C(F)(F)C(F)(F)C(F)(F)C(F)(F)C(F)(F)C(F)(F)F [Perfluoroundecanoic acid] (in DMSO); conditions: 6700 nM
Procedure: as §1

[4] = compound: O=C(O)C=C(C(F)(F)F)C(F)(F)F [3,3-Bis(trifluoromethyl)-2-propenoic acid] (in DMSO)
Procedure: as §1

[5] = compound: O=C(O)C(F)(F)OC(F)(F)C(F)(F)OC(F)(F)C(F)(F)OC(F)(F)C(F)(F)C(F)(F)C(F)(F)F [Perfluoro-3,6,9-trioxatridecanoic acid] (in DMSO); conditions: 6700 nM
Procedure: as §1

[6] = compound: O=C(O)C(F)(OC(F)(F)C(F)(OC(F)(F)C(F)(OC(F)(F)C(F)(F)C(F)(F)F)C(F)(F)F)C(F)(F)F)C(F)(F)F [Perfluoro-(2,5,8-trimethyl-3,6,9-trioxadodecanoic)acid] (in DMSO)
Procedure: as §1

[7] = compound: C[C@@H]1C[C@H]2[C@@H]3CCC4=CC(=O)C=C[C@]4(C)[C@@]3(F)[C@@H](O)C[C@]2(C)[C@@]1(O)C(=O)COP(=O)(O)O [Dexamethasone sodium phosphate] (in DMSO)
Procedure: as §1

[8] = compound: OCCC(F)(F)C(F)(F)C(F)(F)C(F)(F)F [4:2 Fluorotelomer alcohol] (in DMSO)
Procedure: as §1

Test System | level (log10) ([1]; 6700 nM) | level (log10) ([1]; 20000 nM) | level (log10) ([1]; 60000 nM) | level (log10) ([2]; 6700 nM) | level (log10) ([2]; 20000 nM) | level (log10) [3] | level (log10) ([4]; 6700 nM) | level (log10) ([4]; 20000 nM) | level (log10) ([4]; 60000 nM) | level (log10) [5] | level (log10) ([6]; 1100 nM) | level (log10) ([6]; 3300 nM) | level (log10) ([6]; 10000 nM) | level (log10) ([7]; 1500 nM) | level (log10) ([7]; 4400 nM) | level (log10) ([7]; 13000 nM) | level (log10) ([7]; 40000 nM) | level (log10) ([8]; 6700 nM) | level (log10) ([8]; 20000 nM) | level (log10) ([8]; 60000 nM)
KF3CT:PAI-I | -0.02 ± 0.025 | -0.004 ± 0.014 | -0.0005 ± 0.0078 | 0.0045 ± 0.0064 | 0.009 ± 0.014 | -0.11 ± 0.013 | 0.004 ± 0.013 | 0.002 ± 0.013 | -0.0055 ± 0.018 | -0.126 | -0.0025 ± 0.0035 | -0.018 ± 0.0071 | 0.006 ± 0.0099 | 0.0055 ± 0.0021 | 0.0235 ± 0.0092 | 0.002 ± 0.025 | 0.006 | -0.0355 ± 0.012 | -0.073 ± 0.027 | 0.041 ± 0.035
KF3CT:SRB | -0.004 ± 0.0014 | -0.0095 ± 0.015 | -0.003 ± 0.013 | -0.0045 ± 0.0064 | -0.004 ± 0.0028 | -0.0105 ± 0.0021 | -0.0015 ± 0.0021 | 0.003 | 0.024 ± 0.0071 | -0.0355 ± 0.0035 | 0.0005 ± 0.011 | 0.0025 ± 0.016 | -0.008 ± 0.0014 | -0.0025 ± 0.00071 | -0.0035 ± 0.0035 | -0.0005 ± 0.005 | 0.0055 ± 0.012 | -0.009 ± 0.0071 | -0.009 ± 0.013 | -0.0025 ± 0.00071
KF3CT:TIMP-2 | -0.0315 ± 0.011 | -0.0145 ± 0.0078 | 0.0095 ± 0.035 | -0.004 ± 0.028 | 0.0035 ± 0.011 | 0.0125 ± 0.012 | 0.006 ± 0.048 | -0.016 ± 0.021 | 0.039 ± 0.052 | -0.172 ± 0.037 | -0.0075 ± 0.013 | -0.0105 ± 0.011 | -0.001 ± 0.017 | -0.0095 ± 0.025 | -0.0005 ± 0.021 | -0.0025 ± 0.005 | 0.0155 ± 0.069 | -0.0185 ± 0.14 | -0.0295 ± 0.074 | 0.004 ± 0.054
KF3CT:uPA | -0.0045 ± 0.019 | 0.0135 ± 0.005 | 0.0115 ± 0.0078 | 0.0015 ± 0.0092 | -0.015 ± 0.0028 | 0.0125 ± 0.018 | 0.027 ± 0.02 | 0.0275 ± 0.028 | 0.0325 ± 0.0021 | 0.027 ± 0.0057 | 0.01 | 0.0045 ± 0.021 | 0.0075 ± 0.005 | 0 ± 0.011 | 0.012 ± 0.0085 | -0.0085 ± 0.00071 | -0.006 ± 0.017 | -0.0105 ± 0.039 | -0.0185 ± 0.0021 | 0.017 ± 0.027
MyoF:CD106/VCAM-1 | -0.0125 ± 0.021 | -0.014 ± 0.024 | -0.017 ± 0.0085 | 0.003 ± 0.0042 | -0.008 ± 0.018 | -0.079 ± 0.018 | -0.0825 ± 0.00071 | -0.145 ± 0.0021 | -0.291 ± 0.04 | -0.212 ± 0.048 | 0 ± 0.0028 | -0.0035 ± 0.0092 | 0.013 ± 0.0099 | -0.0825 ± 0.03 | -0.046 ± 0.0057 | -0.058 ± 0.013 | -0.0655 ± 0.016 | -0.0275 ± 0.0078 | -0.024 ± 0.0042 | -0.0225 ± 0.064
MyoF:CXCL8/IL-8 | 0.0005 ± 0.025 | 0.003 ± 0.0042 | 0.009 ± 0.027 | -0.016 ± 0.0014 | 0.0085 ± 0.036 | 0.0245 ± 0.0092 | 0.0915 ± 0.00071 | 0.107 ± 0.015 | 0.154 ± 0.016 | 0.056 ± 0.0057 | 0.0475 ± 0.077 | 0.005 ± 0.0028 | -0.006 ± 0.016 | -0.0725 ± 0.011 | -0.074 ± 0.013 | -0.1 ± 0.011 | -0.104 ± 0.0057 | -0.039 | -0.0475 ± 0.0021 | 0.0435 ± 0.0078
MyoF:Collagen I | 0.0025 ± 0.019 | 0.007 ± 0.023 | 0.01 ± 0.0057 | -0.0075 ± 0.0064 | 0.007 ± 0.0014 | -0.421 ± 0.0092 | -0.031 ± 0.0057 | -0.046 ± 0.021 | -0.055 ± 0.04 | -0.598 ± 0.0057 | -0.0495 ± 0.026 | -0.0365 ± 0.0021 | -0.03 ± 0.0071 | 0.032 ± 0.021 | 0.032 ± 0.0057 | 0.006 ± 0.0071 | 0.027 ± 0.0042 | -0.031 ± 0.044 | -0.031 ± 0.041 | 0.01 ± 0.028
MyoF:Collagen III | 0.006 ± 0.0028 | 0.007 ± 0.0028 | -0.003 ± 0.0085 | 0.0175 ± 0.019 | -0.011 ± 0.011 | -0.3895 ± 0.00071 | -0.021 ± 0.0014 | -0.0335 ± 0.00071 | -0.064 ± 0.011 | -0.894 ± 0.12 | -0.008 ± 0.021 | 0.0155 ± 0.00071 | 0.006 | 0.0055 ± 0.021 | 0.0255 ± 0.035 | 0.0185 ± 0.021 | 0.028 ± 0.018 | -0.011 ± 0.038 | 0.007 ± 0.042 | 0.0245 ± 0.032
MyoF:Collagen IV | 0.0175 ± 0.0021 | 0.0075 ± 0.0078 | 0.0325 ± 0.04 | 0.0085 ± 0.018 | 0.038 ± 0.0028 | 0.57 ± 0.013 | -0.0215 ± 0.029 | -0.055 ± 0.025 | -0.0345 ± 0.028 | 0.412 ± 0.089 | 0.034 ± 0.054 | 0.0255 ± 0.037 | 0.0225 ± 0.025 | -0.007 ± 0.021 | 0.011 ± 0.041 | 0.0005 ± 0.037 | 0.0195 ± 0.011 | 0 ± 0.0057 | -0.0095 ± 0.012 | 0.0285 ± 0.05
MyoF:Decorin | 0.009 ± 0.011 | 0.0095 ± 0.018 | 0.03 ± 0.042 | -0.0005 ± 0.0021 | 0.029 ± 0.034 | -0.026 ± 0.035 | -0.0275 ± 0.0021 | -0.043 ± 0.024 | -0.057 ± 0.045 | 0.033 ± 0.037 | 0 ± 0.013 | -0.0065 ± 0.013 | 0.012 | 0.016 ± 0.011 | 0.0385 ± 0.012 | 0.034 ± 0.033 | 0.039 ± 0.042 | -0.0155 ± 0.066 | 0.003 ± 0.028 | 0.0645 ± 0.026
MyoF:MMP-1 | -0.007 ± 0.0028 | -0.0055 ± 0.005 | -0.017 ± 0.018 | -0.001 ± 0.011 | -0.012 ± 0.017 | -0.036 ± 0.018 | -0.0075 ± 0.0092 | -0.0445 ± 0.0078 | -0.0085 ± 0.093 | 0.0205 ± 0.029 | -0.048 ± 0.0014 | -0.0475 ± 0.012 | -0.03 ± 0.027 | 0.004 ± 0.031 | 0.005 ± 0.0014 | -0.0315 ± 0.013 | -0.0125 ± 0.005 | -0.0345 ± 0.04 | -0.026 ± 0.027 | 0.0215 ± 0.0064
MyoF:PAI-I | -0.009 ± 0.021 | 0.0095 ± 0.015 | 0.0105 ± 0.0092 | 0.0075 ± 0.0092 | 0.008 ± 0.0014 | -0.01 ± 0.018 | -0.005 ± 0.0042 | 0.0045 ± 0.0064 | 0.005 ± 0.02 | -0.0885 ± 0.046 | 0.005 ± 0.021 | 0.006 ± 0.0085 | 0.0085 ± 0.016 | 0.0185 ± 0.0078 | 0.0085 ± 0.015 | 0.005 ± 0.0028 | 0.0085 ± 0.012 | -0.0185 ± 0.018 | -0.0215 ± 0.019 | -0.0155 ± 0.00071
MyoF:SRB | 0.0035 ± 0.012 | 0.0035 ± 0.0035 | 0.0055 ± 0.0035 | 0.0045 ± 0.0064 | 0.0005 ± 0.00071 | -0.029 ± 0.014 | 0.0005 ± 0.012 | -0.005 ± 0.0014 | -0.024 ± 0.0071 | -0.0815 ± 0.0064 | -0.0065 ± 0.005 | 0.008 ± 0.018 | 0.0085 ± 0.015 | -0.01 ± 0.0099 | -0.0105 ± 0.0035 | -0.0135 ± 0.0092 | -0.0105 ± 0.00071 | -0.0015 ± 0.0035 | 0.0015 ± 0.0035 | -0.0015 ± 0.005
